In ChEMBL document CHEMBL3044710, “Nematodetoxic aurovertin-type metabolites from a root-knot nematode parasitic fungus Pochonia chlamydosporia” (2010):
Values after ≈ are worked out from the molar mass of the structure shown. Active and inactive are the calls of the source. The calls are words filed in the database; no cut-off is given here.

Assays:
Meloidogyne incognita [1] = assay: Nematodexic activity against eggs of Meloidogyne incognita (root-knot nematode) assessed as mean corrected egg hatching inhibition rate at 25 to 400 ug/ml at 28 degC measured after 7 to 13 days by normal binocular microscopic analysis; type: functional
Panagrellus redivivus [2] = assay: Nematodexic activity against mixed juvenile and adult stages of Panagrellus redivivus assessed as disruption of internal structure, vacuole formation and residual empty somatocysts in the dead worm at 28 degC measured after 48 hr by normal binocular microscopic analysis; type: functional, organism-based
Panagrellus redivivus [3] = assay: Nematodexic activity against mixed juvenile and adult stages of Panagrellus redivivus assessed as mean corrected mortality rate at 28 degC measured after 48 hr by normal binocular microscopic analysis; type: functional
Meloidogyne incognita [4] = assay: Nematodexic activity against Meloidogyne incognita (root-knot nematode) assessed as mortality at 500 mg/l after 96 hr; type: functional

Row | SMILES | inhibition (INH) (Meloidogyne incognita [1]) | Activity (Panagrellus redivivus [2]) | LC50 (Panagrellus redivivus [3]) | mortality at 500 µg/mL (Meloidogyne incognita [4])
1 | COc1cc(=O)oc(/C=C/C=C/C=C/C2OC3(C)C([C@H](C)O)OC(C)(C2O)C3OC(C)=O)c1C (some centres undefined) [AUROVERTIN D] | <=5% | Active | 41.7 µg/mL (≈ 87.5 µM) | –
2 | C/C=C/[C@@H]1OC(=O)C=C[C@@H]1O [PHOMALACTONE] | – | – | – | 84%
3 | COc1cc(=O)oc(/C=C/C=C/C=C/[C@@H]2O[C@@]3(C)C(C)O[C@](C)([C@H]2O)[C@@H]3O)c1C (some centres undefined) | <=5% | – | – | –
4 | COc1cc(=O)oc(/C=C/C=C/C=C/C2OC3(C)C([C@H](C)O)OC(C)(C2O)C3O)c1C (some centres undefined) [AUROVERTIN F] | <=5% | Active | 88.6 µg/mL (≈ 204 µM) | –
5 | CCC1O[C@]2(C)[C@@H](O)[C@H](/C=C/C=C/C=C/c3oc(=O)cc(OC)c3C)O[C@]1(C)[C@H]2O (some centres undefined) | <=5% | – | – | –
